IC50 data for 27 compounds are collected here from patent publication US8450317B2, “CXCR3 receptor antagonists” (Boehringer Ingelheim International GmbH, priority 2009, dated 2013).

SMILES strings stand for the structures.

For the experiment, the target named is CXCR3 (Macaca fascicularis, UniProt A0A2K5UV19). Description: functional cellular assay measuring calcium flux in CXCR3 transfected cells (block of CXCR3/IP-10 interaction). The class given is cell-based, Cyno. As to conditions: IP-10 induced intracellular calcium flux; Cyno-CHO cells stably expressing recombinant CXCR3 and G-alpha-16; IP-10 at EC80; read-out: IC50. The method, then:
Compounds are assessed for the ability to block the interaction of CXCR3 and IP-10 in a functional cellular assay measuring calcium flux in CXCR3 transfected cells.
Cyno-CHO cells, stably expressing recombinant CXCR3 and G-alpha-16 are grown in F12 medium (Mediatech #45000-360) supplemented with 10% (V/V) FBS (Mediatech #35-01500), 1% Geneticin (Invitrogen #10131-027) and 0.2% Zeocin (Invitrogen #R250-05). The cells are spun down and re-suspended in growth media to a concentration of […]. 25 microL of cell suspension is added to each well of a BD-384-well TC treated plate, providing 12,000 cells/well. The plate is incubated at 37° C./5% CO2 overnight. On the day of the assay, the plates are removed, the media is flicked out and 25 microL of Ca-4 dye in assay buffer (HBSS, 10 mM HEPES ph 7.4), containing 2 mM probenacid is added to each well. The cell assay plates are then incubated at 37° C./5% CO2 for one hour.
Test compounds are dissolved in DMSO and diluted to 1.045 mM in DMSO. Just prior to assay, 2.75 microL of appropriately diluted test compound are added to each well of a 384 well plate containing 45 microL of HBSS buffer. After mixing, 5 microL of diluted compound are added to each well of the cell assay plate for a final assay concentration of 10 microM. The plate is incubated at room temperature for 15 min. 10 microL of IP-10 stock solution in HBSS (4× EC80 concentration) are added to each well of the cell assay plate except those cells reserved as blank wells containing buffer only. Intracellular calcium flux is recorded on the HAMAMTSU FDSS6000, using excitation at 480 nm and emission at 540 nm. Data are analyzed using Activity Base software.
In general, the preferred potency range (IC50) of compounds in the above assay is between 1 nM to 3 μM, and the most preferred potency range is 1 nM to 200 nM.
A general note: A change in cytosolic calcium serves as a functional read-out for many receptors and channels.

CXCR3, sequence (A0A2K5UV19 entry or part of it): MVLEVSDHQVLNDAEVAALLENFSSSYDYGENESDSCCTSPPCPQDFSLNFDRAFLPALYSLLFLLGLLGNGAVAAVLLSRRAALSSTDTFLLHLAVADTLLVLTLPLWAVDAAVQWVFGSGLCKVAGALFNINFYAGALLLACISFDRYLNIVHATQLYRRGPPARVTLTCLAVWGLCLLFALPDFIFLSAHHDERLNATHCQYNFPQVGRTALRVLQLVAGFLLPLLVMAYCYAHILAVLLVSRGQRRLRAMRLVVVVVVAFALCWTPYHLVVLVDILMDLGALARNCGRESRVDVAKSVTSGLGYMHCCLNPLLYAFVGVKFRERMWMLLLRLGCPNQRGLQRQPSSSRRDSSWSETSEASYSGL

On to `C[C@@H]1CN(c2ncc(-c3ccccc3N3CCN(C(=O)Cn4ccc5cccnc54)CC3)cn2)C[C@@H](C)O1` [1-(4-{2-[2-((2R,6R)-2,6-Dimethyl-morpholin-4-yl)-pyrimidin-5-yl]-phenyl}-piperazin-1-yl)-2-pyrrolo[2,3-b]pyridin-1-yl-ethanone], for which the IC50 (commonly the concentration that inhibits the measured activity by half) is 7 nM. As for `C[C@@H]1CN(c2ncc(-c3ccccc3N3CCN(C(=O)Cn4ccc5cccnc54)CC3)cn2)C[C@H](C)O1` [1-(4-{2-[2-((2R,6S)-2,6-Dimethyl-morpholin-4-yl)-pyrimidin-5-yl]-phenyl}-piperazin-1-yl)-2-pyrrolo[2,3-b]pyridin-1-yl-ethanone], the IC50 came to 10 nM.

On to `Cc1cc(C)n(CC(=O)N2CCN(c3ccccc3-c3cnc(N4CC[C@@H](N(C)C)C4)nc3)CC2)n1` [1-(4-{2-[2-((R)-3-Dimethylamino-pyrrolidin-1-yl)-pyrimidin-5-yl]-phenyl}-piperazin-1-yl)-2-(3,5-dimethyl-pyrazol-1-yl)-ethanone], for which the IC50 was found to be 4 nM. Next, `Cc1cc(C)n(CC(=O)N2CCN(c3ccccc3-c3cnc(N4C[C@H]5CC[C@@H]4C5)nc3)CC2)n1` [1-(4-{2-[(1R,4S)-2-(2-Aza-bicyclo[2.2.1]hept-2-yl)-pyrimidin-5-yl]-phenyl}-piperazin-1-yl)-2-(3,5-dimethyl-pyrazol-1-yl)-ethanone]: 4 nM; `O=C(Cn1ccc2cccnc21)N1CCN(c2ccc(F)cc2-c2cnc(N3CCC(O)CC3)nc2)CC1` [1-(4-{4-fluoro-2-[2-(4-hydroxypiperidin-1-yl)pyrimidin-5-yl]phenyl}piperazin-1-yl)-2-(1H-pyrrolo[2,3-b]pyridin-1-yl)ethanone]: 8 nM. `O=C(Cn1ccc2ccncc21)N1CCN(c2ccc(F)cc2-c2cnc(N3CCC(O)CC3)nc2)CC1` [1-(4-{4-fluoro-2-[2-(4-hydroxypiperidin-1-yl)pyrimidin-5-yl]phenyl}piperazin-1-yl)-2-(1H-pyrrolo[2,3-c]pyridin-1-yl)ethanone]: the IC50 is 10 nM. With `O=C(Cn1cnc2cccnc21)N1CCN(c2ccc(F)cc2-c2cnc(N3CCC(O)CC3)nc2)CC1` [1-(4-{4-fluoro-2-[2-(4-hydroxypiperidin-1-yl)pyrimidin-5-yl]phenyl}piperazin-1-yl)-2-(3H-imidazo[4,5-b]pyridin-3-yl)ethanone] the figure was 8 nM; with `CN1CCN(c2ncc(-c3cc(F)ccc3N3CCN(C(=O)Cn4ccc5cccnc54)CC3)cn2)CC1` [1-(4-{4-fluoro-2-[2-(4-methylpiperazin-1-yl)pyrimidin-5-yl]phenyl}piperazin-1-yl)-2-(1H-pyrrolo[2,3-b]pyridin-1-yl)ethanone], 20 nM; with `CN1CCN(c2ncc(-c3cc(F)ccc3N3CCN(C(=O)Cn4cnc5cccnc54)CC3)cn2)CC1` [1-(4-{4-fluoro-2-[2-(4-methylpiperazin-1-yl)pyrimidin-5-yl]phenyl}piperazin-1-yl)-2-(3H-imidazo[4,5-b]pyridin-3-yl)ethanone], 43 nM. With `CC1CN(c2ccc(F)cc2-c2cnc(S(C)(=O)=O)nc2)CCN1C(=O)Cn1ccc2cccnc21` (stereo not drawn) [1-(4-{4-fluoro-2-[2-(methylsulfonyl)pyrimidin-5-yl]phenyl}-2-methylpiperazin-1-yl)-2-(1H-pyrrolo[2,3-b]pyridin-1-yl)ethanone] the figure was 48 nM. As to `CS(=O)(=O)c1ncc(-c2cc(F)ccc2N2CCN(C(=O)Cn3ccc4cccnc43)CC2)cn1` [1-(4-{4-fluoro-2-[2-(methylsulfonyl)pyrimidin-5-yl]phenyl}piperazin-1-yl)-2-(1H-pyrrolo[2,3-b]pyridin-1-yl)ethanone], the half-maximal inhibitory concentration (IC50) was 67 nM. With `CS(=O)(=O)c1ncc(-c2cc(F)ccc2N2CCN(C(=O)Cn3cnc4cccnc43)CC2)cn1` [1-(4-{4-fluoro-2-[2-(methylsulfonyl)pyrimidin-5-yl]phenyl}piperazin-1-yl)-2-(3H-imidazo[4,5-b]pyridin-3-yl)ethanone] the figure was 488 nM; with `O=C(Cn1ccc2cccnc21)N1CCN(c2ccc(F)cc2-c2cnc(N3CCOCC3)nc2)CC1` [1-(4-{4-fluoro-2-[2-(morpholin-4-yl)pyrimidin-5-yl]phenyl}piperazin-1-yl)-2-(1H-pyrrolo[2,3-b]pyridin-1-yl)ethanone], 14 nM. Regarding `O=C(Cn1ccc2ccncc21)N1CCN(c2ccc(F)cc2-c2cnc(N3CCOCC3)nc2)CC1` [1-(4-{4-fluoro-2-[2-(morpholin-4-yl)pyrimidin-5-yl]phenyl}piperazin-1-yl)-2-(1H-pyrrolo[2,3-c]pyridin-1-yl)ethanone], the concentration for half-maximal inhibition (IC50) was 13 nM. With `O=C(Cn1cnc2cccnc21)N1CCN(c2ccc(F)cc2-c2cnc(N3CCOCC3)nc2)CC1` [1-(4-{4-fluoro-2-[2-(morpholin-4-yl)pyrimidin-5-yl]phenyl}piperazin-1-yl)-2-(3H-imidazo[4,5-b]pyridin-3-yl)ethanone] the figure was 24 nM; with `O=C(Cn1ccc2cccnc21)N1CCN(c2ccc(F)cc2-c2cnc(N3CCCC3)nc2)CC1` [1-(4-{4-fluoro-2-[2-(pyrrolidin-1-yl)pyrimidin-5-yl]phenyl}piperazin-1-yl)-2-(1H-pyrrolo[2,3-b]pyridin-1-yl)ethanone], 15 nM.

Regarding `O=C(Cn1ccc2ccncc21)N1CCN(c2ccc(F)cc2-c2cnc(N3CCCC3)nc2)CC1` [1-(4-{4-fluoro-2-[2-(pyrrolidin-1-yl)pyrimidin-5-yl]phenyl}piperazin-1-yl)-2-(1H-pyrrolo[2,3-c]pyridin-1-yl)ethanone], the IC50 was 14 nM. On to `O=C(Cn1cnc2cccnc21)N1CCN(c2ccc(F)cc2-c2cnc(N3CCCC3)nc2)CC1` [1-(4-{4-fluoro-2-[2-(pyrrolidin-1-yl)pyrimidin-5-yl]phenyl}piperazin-1-yl)-2-(3H-imidazo[4,5-b]pyridin-3-yl)ethanone], for which the 50% inhibitory concentration (IC50) came to 14 nM. Consider `CC1CN(c2ccc(C(F)(F)F)cc2-c2cnc(S(C)(=O)=O)nc2)CCN1C(=O)Cn1c(=O)[nH]c2ccccc21` (stereo not drawn) [1-[2-(2-methyl-4-{2-[2-(methylsulfonyl)pyrimidin-5-yl]-4-(trifluoromethyl)phenyl}piperazin-1-yl)-2-oxoethyl]-1,3-dihydro-2H-benzimidazol-2-one], for which the 50% inhibitory concentration (IC50) is 20 nM. Next, `CC1CN(c2ccc(C(F)(F)F)cc2-c2cnc(S(C)(=O)=O)nc2)CCN1C(=O)CN1CCCCC1=O` (stereo not drawn) [1-[2-(2-methyl-4-{2-[2-(methylsulfonyl)pyrimidin-5-yl]-4-(trifluoromethyl)phenyl}piperazin-1-yl)-2-oxoethyl]piperidin-2-one]: 310 nM; `CC1CN(c2ccccc2-c2cnc(S(C)(=O)=O)nc2)CCN1C(=O)Cn1c(=O)[nH]c2ccccc21` (stereo not drawn) [1-[2-(2-methyl-4-{2-[2-(methylsulfonyl)pyrimidin-5-yl]phenyl}piperazin-1-yl)-2-oxoethyl]-1,3-dihydro-2H-benzimidazol-2-one]: 63 nM; `O=C(Cn1c(=O)[nH]c2ccccc21)N1CCN(c2ccccc2-c2ccccc2)CC1` [1-[2-(4-Biphenyl-2-yl-piperazin-1-yl)-2-oxo-ethyl]-1,3-dihydro-benzoimidazol-2-one]: 140 nM. Next, `CC1CN(c2ccc(C(F)(F)F)cc2-c2cnc(N3CCC(O)CC3)nc2)CCN1C(=O)Cn1c(=O)[nH]c2ccccc21` (stereo not drawn) [1-[2-(4-{2-[2-(4-hydroxypiperidin-1-yl)pyrimidin-5-yl]-4-(trifluoromethyl)phenyl}-2-methylpiperazin-1-yl)-2-oxoethyl]-1,3-dihydro-2H-benzimidazol-2-one]: 9 nM; `CC1CN(c2ccc(C(F)(F)F)cc2-c2cnc(N3CCC(O)CC3)nc2)CCN1C(=O)CN1CCCCC1=O` (stereo not drawn) [1-[2-(4-{2-[2-(4-hydroxypiperidin-1-yl)pyrimidin-5-yl]-4-(trifluoromethyl)phenyl}-2-methylpiperazin-1-yl)-2-oxoethyl]piperidin-2-one]: 11 nM. With `CC1CN(c2ccccc2-c2cnc(N3CCC(O)CC3)nc2)CCN1C(=O)Cn1c(=O)[nH]c2ccccc21` (stereo not drawn) [1-[2-(4-{2-[2-(4-hydroxypiperidin-1-yl)pyrimidin-5-yl]phenyl}-2-methylpiperazin-1-yl)-2-oxoethyl]-1,3-dihydro-2H-benzimidazol-2-one] the figure was 8 nM. `CC1CN(c2ccccc2-c2cnc(N3CCC(O)CC3)nc2)CCN1C(=O)CN1CCCCC1=O` (stereo not drawn) [1-[2-(4-{2-[2-(4-hydroxypiperidin-1-yl)pyrimidin-5-yl]phenyl}-2-methylpiperazin-1-yl)-2-oxoethyl]piperidin-2-one]: the half-maximal inhibitory concentration (IC50) is 19 nM. Next, `O=C(Cn1c(=O)[nH]c2ccccc21)N1CCN(c2ccc(F)cc2-c2cnc(N3CCC(O)CC3)nc2)CC1` [1-[2-(4-{4-fluoro-2-[2-(4-hydroxypiperidin-1-yl)pyrimidin-5-yl]phenyl}piperazin-1-yl)-2-oxoethyl]-1,3-dihydro-2H-benzimidazol-2-one]: 8 nM.
